One may read the IC50 as the point on the concentration scale where inhibition reaches its midpoint.

This assay has as its system RS411 cells. Nature of the assay: Cell Viability CTG Assay (CellTiter Glo) in RS411 cells. Format: cell-based. Conditions: Homo sapiens, RS4-11, 24 h, duration 1 day. In outline:
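RS411 cells at 1000 cells/well were exposed to compound (top final 10 μM, 3-fold, 11 doses; 0.2% DMSO) at 37 °C, 5% CO2 for 1-4 days. Viability was read by CellTiter Glo luminescence after 10 min at RT. IC50 is reported as letter-code bins.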
(ATP-based viability assays read luminescence as a measure of living cells.)
On to `Cc1ccc2c(c1C1CCN(C[C@H]3CC[C@H](NC(=O)[C@@H]4NC5(CCCCC5)[C@@]5(C(=O)Nc6cc(Cl)ccc65)[C@H]4c4cccc(Cl)c4F)CC3)CC1)n(C)c(=O)n2C1CCC(=O)NC1=O` (stereo partly shown) [I-185], for which the IC50 was under 50 nM. The result for `Cn1c(=O)n(C2CCC(=O)NC2=O)c2ccc(C3CCN(C[C@H]4CC[C@H](NC(=O)[C@@H]5NC6(CCCCC6)[C@@]6(C(=O)Nc7cc(Cl)ccc76)[C@H]5c5cccc(Cl)c5F)CC4)CC3)cc21` (stereo partly shown) [I-186] reads under 50 nM; that for `COc1ccc2c(c1C1CCN(C[C@H]3CC[C@H](NC(=O)[C@@H]4NC5(CCCCC5)[C@@]5(C(=O)Nc6cc(Cl)ccc65)[C@H]4c4cccc(Cl)c4F)CC3)CC1)n(C)c(=O)n2C1CCC(=O)NC1=O` (stereo partly shown) [I-187], under 50 nM; that for `Cc1ncsc1-c1ccc(CNC(=O)[C@@H]2C[C@@H](O)CN2C(=O)[C@@H](NC(=O)COCCOCC2CCN(C[C@H]3CC[C@H](NC(=O)[C@@H]4NC5(CCCCC5)[C@@]5(C(=O)Nc6cc(Cl)ccc65)[C@H]4c4cccc(Cl)c4F)CC3)CC2)C(C)(C)C)cc1` [I-188], over 1000 nM. The result for `Cn1c(=O)n(C2CCC(=O)NC2=O)c2ccc(CCCCCN3CCc4cc(NC(=O)[C@@H]5NC6(CCCCC6)[C@@]6(C(=O)Nc7cc(Cl)ccc76)[C@H]5c5cccc(Cl)c5F)ccc4C3)cc21` (stereo partly shown) [I-189] reads under 50 nM; that for `COc1cc2c(cc1OC(C)C)C(c1ccc(Cl)cc1)N(c1ccc(N(C)C[C@H]3CC[C@H](N4CCN(CCCCCc5cccc6c5n(C)c(=O)n6C5CCC(=O)NC5=O)C(=O)C4)CC3)cc1)C(=O)C2` (stereo partly shown) [I-192], under 50 nM; that for `COc1cc2c(cc1OC(C)C)C(c1ccc(Cl)cc1)N(c1ccc(N(C)C[C@H]3CC[C@H](N4CCN(CCCCCc5ccc6c(c5)n(C)c(=O)n6C5CCC(=O)NC5=O)C(=O)C4)CC3)cc1)C(=O)C2` (stereo partly shown) [I-193], under 50 nM. The same measure for `COc1cc2c(cc1OC(C)C)C(c1ccc(Cl)cc1)N(c1ccc(N(C)C[C@H]3CC[C@H](N4CCC(CCc5ccc6c(c5)n(C)c(=O)n6C5CCC(=O)NC5=O)CC4)CC3)cc1)C(=O)C2` (stereo partly shown) [I-194]: under 50 nM. On to `COc1cc2c(cc1OC(C)C)C(c1ccc(Cl)cc1)N(c1ccc(N(C)C[C@H]3CC[C@H](N(C)CCc4ccc5c(c4)n(C)c(=O)n5C4CCC(=O)NC4=O)CC3)cc1)C(=O)C2` (stereo partly shown) [I-195], for which the IC50 is over 1000 nM. As for `Cn1c(=O)n(C2CCC(=O)NC2=O)c2ccc(CCN3CCN(C[C@H]4CC[C@H](NC(=O)[C@@H]5NC6(CCC(C)(C)CC6)[C@@]6(C(=O)Nc7cc(Cl)ccc76)[C@H]5c5ccnc(Cl)c5F)CC4)CC3)cc21` (stereo partly shown) [I-196], the IC50 is under 50 nM. The same measure for `COc1cc2c(cc1OC(C)C)[C@@H](c1ccc(Cl)cc1)N(c1ccc(N(C)CC3CCN(CCCCCCc4ccc5c(c4)n(C)c(=O)n5C4CCC(=O)NC4=O)CC3)cc1)C(=O)C2` (stereo partly shown) [I-197]: over 1000 nM; for `Cn1c(=O)n(C2CCC(=O)NC2=O)c2ccc(C#CCCN3CCN(C[C@H]4CC[C@H](NC(=O)[C@@H]5NC6(CCC(C)(C)CC6)[C@@]6(C(=O)Nc7cc(Cl)ccc76)[C@H]5c5ccnc(Cl)c5F)CC4)CC3)cc21` (stereo partly shown) [I-198]: under 50 nM; for `CC(C)(C)C[C@@H]1N[C@@H](C(=O)N[C@H]2CC[C@H](CNCCCC#Cc3ccc4c(N5CCC(=O)NC5=O)cncc4c3)CC2)[C@H](c2cccc(Cl)c2F)[C@@]1(C#N)c1ccc(Cl)cc1F` [I-199]: over 1000 nM.

For the compound `COc1cc2c(cc1OC(C)C)[C@H](c1ccc(Cl)cc1)N(c1ccc(N(C)CC3CCN(CCCCCCc4ccc5c(c4)n(C)c(=O)n5C4CCC(=O)NC4=O)CC3)cc1)C(=O)C2` (stereo partly shown) [I-201], the IC50 is under 50 nM. The same measure for `CC(C)(C)C[C@@H]1N[C@@H](C(=O)N[C@H]2CC[C@H](CNCCCC#Cc3cccn4c(N5CCC(=O)NC5=O)cnc34)CC2)[C@H](c2cccc(Cl)c2F)[C@@]1(C#N)c1ccc(Cl)cc1F` [I-202]: over 1000 nM; for `CC1(C)CCC2(CC1)NC(C(=O)N[C@H]1CC[C@H](CN3CCN(CCC#Cc4cccn5c(N6CCC(=O)NC6=O)cnc45)CC3)CC1)[C@H](c1ccnc(Cl)c1F)[C@]21C(=O)Nc2cc(Cl)ccc21` (stereo partly shown) [I-203]: under 50 nM. Consider `Cn1c(=O)n(C2CCC(=O)NC2=O)c2ccc(N3CCN(C[C@H]4CC[C@H](NC(=O)[C@@H]5NC6(CCC(C)(C)CC6)[C@@]6(C(=O)Nc7cc(Cl)ccc76)[C@H]5c5ccnc(Cl)c5F)CC4)CC3)cc21` (stereo partly shown) [I-204], for which the half-inhibitory concentration (IC50) was under 50 nM. The same measure for `Cn1c(=O)n(C2CCC(=O)NC2=O)c2ccc(CN3CCN(C[C@H]4CC[C@H](NC(=O)[C@@H]5NC6(CCC(C)(C)CC6)[C@@]6(C(=O)Nc7cc(Cl)ccc76)[C@H]5c5ccnc(Cl)c5F)CC4)CC3)cc21` (stereo partly shown) [I-205]: under 50 nM. The same measure for `COc1cc2c(cc1OC(C)C)C(c1ccc(Cl)cc1)N(c1ccc(N(C)C[C@H]3CC[C@H](N(C)CCCC#Cc4c(OC)ccc5c4n(C)c(=O)n5C4CCC(=O)NC4=O)CC3)cc1)C(=O)C2` (stereo partly shown) [I-206]: under 50 nM; for `Cn1c(=O)n(C2CCC(=O)NC2=O)c2ccc(N3CCN(C[C@H]4CC[C@H](NC(=O)[C@@H]5NC6(CCCCC6)[C@@]6(C(=O)Nc7cc(Cl)ccc76)[C@H]5c5cccc(Cl)c5F)CC4)CC3)cc21` (stereo partly shown) [I-207]: under 50 nM; for `COc1cc2c(cc1OC(C)C)C(c1ccc(Cl)cc1)N(c1ccc(N(C)CCCCCCCc3ccc4c(c3)n(C)c(=O)n4C3CCC(=O)NC3=O)cc1)C(=O)C2` (stereo not shown) [I-208]: over 1000 nM. `COc1cc2c(cc1OC(C)C)C(c1ccc(Cl)cc1)N(c1ccc(N(C)C(=O)C3CCN(CCCCCCc4ccc5c(c4)n(C)c(=O)n5C4CCC(=O)NC4=O)CC3)cc1)C(=O)C2` (stereo not shown) [I-209]: the IC50 was over 1000 nM. The same measure for `CN(CCCCCc1ccc2c(c1)n(C)c(=O)n2C1CCC(=O)NC1=O)Cc1ccc(NC(=O)[C@@H]2NC3(CCCCC3)[C@@]3(C(=O)Nc4cc(Cl)ccc43)[C@H]2c2cccc(Cl)c2F)c2c1OCCO2` (stereo partly shown) [I-210]: under 50 nM. The same measure for `COc1cc2c(cc1OC(C)C)[C@H](c1ccc(Cl)cc1)N(c1ccc(N(C)C[C@H]3CC[C@H](N4CCN(CCc5ccc6c(c5)n(C)c(=O)n6C5CCC(=O)NC5=O)CC4)CC3)cc1)C(=O)C2` (stereo partly shown) [I-211]: under 50 nM; for `COc1cc2c(cc1OC(C)C)C(c1ccc(Cl)cc1)N(c1ccc(N(C)C[C@H]3CC[C@H](N(C)CCCCc4ccn5c(N6CCC(=O)NC6=O)cnc5c4)CC3)cc1)C(=O)C2` (stereo partly shown) [I-212]: over 1000 nM.

Compound `CNC(=O)c1ccc(N2C(=O)[C@H]3[C@H](c4cccc(Cl)c4F)[C@@](C#N)(c4ccc(Cl)cc4F)[C@H](CC(C)(C)C)N3C2CCCCCCCC#Cc2ccc3c(c2)n(C)c(=O)n3C2CCC(=O)NC2=O)c(OC)c1` (stereo partly drawn) [I-213, 4-[(5S,6R,7S,7aR)-7-(3-chloro-2-fluoro-phenyl)-6-(4-chloro-2-fluoro-phenyl)-6-cyano-5-(2,2-dimethylpropyl)-3-[9-[1-(2,6-dioxo-3-piperidyl)-3-methyl-2-oxo-benzimidazol-5-yl]non-8-ynyl]-1-oxo-3,5,7,7a-tetrahydropyrrolo[1,2-c]imidazol-2-yl]-3-methoxy-N-methyl-benzamide] came in with an IC50 of over 1000 nM.

Consider `Cn1c(=O)n(C2CCC(=O)NC2=O)c2ccc(C#CCCCCCCCCN3[C@@H](C(=O)Nc4ccc(C(=O)O)cc4)[C@H](c4cccc(Cl)c4F)[C@]4(C(=O)Nc5cc(Cl)ccc54)C34CCCCC4)cc21` (stereo partly drawn) [I-214, 4-((3′R,4'S,5′R)-6″-chloro-4′-(3-chloro-2-fluorophenyl)-1′-(10-(1-(2,6-dioxopiperidin-3-yl)-3-methyl-2-oxo-2,3-dihydro-1H-benzo[d]imidazol-5-yl)dec-9-yn-1-yl)-2″-oxodispiro[cyclohexane-1,2′-pyrrolidine-3′,3″-indoline]-5′-carboxamido)benzoic acid], for which the half-inhibitory concentration (IC50) is 50 to 100 nM. In turn, `Cn1c(=O)n(C2CCC(=O)NC2=O)c2ccc(C#CCCCCCN3CCC(NC(=O)[C@@H]4NC5(CCCCC5)[C@@]5(C(=O)Nc6cc(Cl)ccc65)[C@H]4c4cccc(Cl)c4F)CC3)cc21` (stereo partly shown) [I-224] gave an IC50 of under 50 nM.

The record behind these values is patent US11932624B2, “MDM2 degraders and uses thereof” (Kymera Therapeutics, Inc., priority 2020, dated 2024).
